# Results reported in patent US7728028B2, “Substituted imidazoline compounds” (Gruenenthal GmbH, priority 2005, dated 2010).
# Target: T1, human μ-opiate receptor (Homo sapiens, UniProt P35372)
# T1 construct: purchased PerkinElmer Life Sciences, Zaventem, Belgium RB-HOM; host or cells: CHO-K1 cells (recombinant expression; membrane preparation)
# Assay: Affinity for the human μ-opiate receptor ([3H]-naloxone displacement, SPA)
# Conditions: Table 2, Examples 11-161; test substance 1 μmole/l; inhibition of specific [3H]-naloxone binding; CHO-K1 membranes; read-out: μ-Opioid receptor, % inhibition [1 μM]
# Procedure: Investigations on the Efficacy of the Compounds According to the Invention Method for Determining the Affinity for the Human μ-Opiate Receptor
# The receptor affinity for the human μ-opiate receptor is determined in a homogeneous batch in microtiter plates. For this purpose dilution series of the substances to be tested are incubated with a receptor membrane preparation (15-40 μg protein/250 μl incubation batch) of CHO-K1 cells, which express the human μ-opiate receptor (RB-HOM receptor membrane preparation from PerkinElmer Life Sciences, Zaventem, Belgium), in the presence of 1 nmole/l of the radioactive ligand [^3H]-naloxone (NET719, PerkinElmer Life Sciences company, Zaventem, Belgium) and 1 mg WGA-SPA beads (wheat germ agglutinin SPA beads from Amersham/Pharmacia, Freiburg, Germany) in a total volume of 250 μl for 90 minutes at room temperature. 50 mmole/l of Tris-HCl supplemented with 0.06% bovine serum albumin is used as incubation buffer. In order to determine the non-specific binding, 100 μmole/l of naloxone is additionally added. After the end of the 90 minutes' incubation time the microtiter plates are centrifuged for 20 minutes at 1000 g and the radioactivity is measured in a beta counter (Microbeta-Trilux, PerkinElmer Wallac, Freiburg, Germany). The percentage displacement of the radioactive ligand from its binding to the human μ-opiate receptor at a concentration of the test substances of 1 μmole/l is determined and is given as percentage inhibition of the specific binding.
# T1 sequence (P35372 whole entry): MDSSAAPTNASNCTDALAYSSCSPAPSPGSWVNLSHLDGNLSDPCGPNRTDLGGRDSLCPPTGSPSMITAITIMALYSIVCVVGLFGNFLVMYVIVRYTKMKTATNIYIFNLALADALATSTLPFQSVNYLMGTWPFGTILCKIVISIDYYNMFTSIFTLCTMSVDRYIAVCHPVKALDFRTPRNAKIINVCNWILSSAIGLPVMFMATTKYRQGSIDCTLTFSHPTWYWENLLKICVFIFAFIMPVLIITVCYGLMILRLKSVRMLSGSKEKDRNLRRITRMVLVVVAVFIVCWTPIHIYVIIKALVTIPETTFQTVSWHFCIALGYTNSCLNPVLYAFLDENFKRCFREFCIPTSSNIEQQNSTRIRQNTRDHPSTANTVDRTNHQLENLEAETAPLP
row,Compound,inhibition at 1 µM
1,"CCCN1C=NC(CSCc2ccccc2)(C(=O)OC)C1C1CCC(C(c2cccc(F)c2)N(C)C)CC1 (centres unmarked) [Example 58, 4-benzylsulfanylmethyl-5-{4-[dimethylamino-(3-fluorophenyl)-methyl]-cyclohexyl}-1-propyl-4,5-dihydro-1H-imidazole-4-carboxylic acid methyl ester]",81%
2,"CCCN1C=NC(CCC(=O)OC)(C(=O)OC)C1C1CCC(C(c2ccc(Cl)cc2)N(C)C)CC1 (centres unmarked) [Example 59, 5-{4-[(4-chlorophenyl)-dimethylaminomethyl]-cyclohexyl}-4-(2-methoxycarbonylethyl)-1-propyl-4,5-dihydro-1H-imidazole-4-carboxylic acid methyl ester]",84%
3,"CCCN1C=NC(CSCc2ccccc2)(C(=O)OC)C1C1CCC(C(c2ccc(Cl)cc2)N(C)C)CC1 (centres unmarked) [Example 60, 4-benzylsulfanylmethyl-5-{4-[(4-chlorophenyl)-dimethylaminomethyl]-cyclohexyl}-1-propyl-4,5-dihydro-1H-imidazole-4-carboxylic acid methyl ester]",95%
4,"CCCN1C=NC(CCC(=O)OC)(C(=O)OC)C1CC1CCC(C(c2ccc(Cl)cc2)N(C)C)CC1 (centres unmarked) [Example 61, 5-{4-[(4-chlorophenyl)-dimethylaminomethyl]-cyclohexylmethyl}-4-(2-methoxycarbonylethyl)-1-propyl-4,5-dihydro-1H-imidazole-4-carboxylic acid methyl ester]",93%
5,"CCCN1C=NC(C(=O)OC)(C(C)CC)C1CC1CCC(C(c2ccc(Cl)cc2)N(C)C)CC1 (centres unmarked) [Example 62, 4-sec-butyl-5-{4-[(4-chlorophenyl)-dimethylaminomethyl]-cyclohexylmethyl}-1-propyl-4,5-dihydro-1H-imidazole-4-carboxylic acid methyl ester]",98%
6,"CCCN1C=NC(CSC)(C(=O)OC)C1CC1CCC(C(c2ccc(Cl)cc2)N(C)C)CC1 (centres unmarked) [Example 63, 5-{4-[(4-chlorophenyl)-dimethylaminomethyl]-cyclohexylmethyl}-4-methylsulfanylmethyl-1-propyl-4,5-dihydro-1H-imidazole-4-carboxylic acid methyl ester]",97%
7,"CCCN1C=NC(CSCc2ccccc2)(C(=O)OC)C1CC1CCC(C(c2ccc(Cl)cc2)N(C)C)CC1 (centres unmarked) [Example 64, 4-benzylsulfanylmethyl-5-{4-[(4-chlorophenyl)-dimethylaminomethyl]-cyclohexylmethyl}-1-propyl-4,5-dihydro-1H-imidazole-4-carboxylic acid methyl ester]",98%
8,"CCCCN1C=NC(CCC(=O)OC)(C(=O)OC)C1C1CCC(C(c2cccc(F)c2)N(C)C)CC1 (centres unmarked) [Example 65, 1-butyl-5-{4-[dimethylamino-(3-fluorophenyl)-methyl]-cyclohexyl}-4-(2-methoxycarbonylethyl)-4,5-dihydro-1H-imidazole-4-carboxylic acid methyl ester]",78%
9,"CCCCN1C=NC(CSC)(C(=O)OC)C1C1CCC(C(c2cccc(F)c2)N(C)C)CC1 (centres unmarked) [Example 66, 1-butyl-5-{4-[dimethylamino-(3-fluorophenyl)-methyl]-cyclohexyl}-4-methylsulfanylmethyl-4,5-dihydro-1H-imidazole-4-carboxylic acid methyl ester]",89%
10,"CCCCN1C=NC(CSCc2ccccc2)(C(=O)OC)C1C1CCC(C(c2cccc(F)c2)N(C)C)CC1 (centres unmarked) [Example 67, 4-benzylsulfanylmethyl-1-butyl-5-{4-[dimethylamino-(3-fluorophenyl)-methyl]-cyclohexyl}-4,5-dihydro-1H-imidazole-4-carboxylic acid methyl ester]",88%
11,"CCCCN1C=NC(CCC(=O)OC)(C(=O)OC)C1C1CCC(C(c2ccc(Cl)cc2)N(C)C)CC1 (centres unmarked) [Example 68, 1-butyl-5-{4-[(4-chlorophenyl)-dimethylaminomethyl]-cyclohexyl}-4-(2-methoxycarbonylethyl)-4,5-dihydro-1H-imidazole-4-carboxylic acid methyl ester]",90%
12,"CCCCN1C=NC(CSCc2ccccc2)(C(=O)OC)C1C1CCC(C(c2ccc(Cl)cc2)N(C)C)CC1 (centres unmarked) [Example 69, 4-benzylsulfanylmethyl-1-butyl-5-{4-[(4-chlorophenyl)-dimethylaminomethyl]-cyclohexyl}-4,5-dihydro-1H-imidazole-4-carboxylic acid methyl ester]",95%
13,"CCCCN1C=NC(CCC(=O)OC)(C(=O)OC)C1CC1CCC(C(c2ccc(Cl)cc2)N(C)C)CC1 (centres unmarked) [Example 70, 1-butyl-5-{4-[(4-chlorophenyl)-dimethylaminomethyl]-cyclohexylmethyl}-4-(2-methoxycarbonylethyl)-4,5-dihydro-1H-imidazole-4-carboxylic acid methyl ester]",96%
14,"CCCN1C=NC(CCC(=O)OC)(C(=O)OC)C1CC1CCC(C(CCc2ccccc2)N(C)C)CC1 (centres unmarked) [Example 71, 5-[4-(1-dimethylamino-3-phenylpropyl)-cyclohexylmethyl]-4-(2-methoxycarbonylethyl)-1-propyl-4,5-dihydro-1H-imidazole-4-carboxylic acid methyl ester]",78%
15,"CCCCN1C=NC(CCC(=O)OC)(C(=O)OC)C1CC1CCC(C(c2cccc(F)c2)N(C)C)CC1 (centres unmarked) [Example 72, 1-butyl-5-{4-[dimethylamino-(3-fluorophenyl)-methyl]-cyclohexylmethyl}-4-(2-methoxycarbonylethyl)-4,5-dihydro-1H-imidazole-4-carboxylic acid methyl ester]",95%
16,"CCCCN1C=NC(C(=O)OC)(C(C)CC)C1CC1CCC(C(c2cccc(F)c2)N(C)C)CC1 (centres unmarked) [Example 73, 1-butyl-4-sec-butyl-5-{4-[dimethylamino-(3-fluorophenyl)-methyl]-cyclohexylmethyl}-4,5-dihydro-1H-imidazole-4-carboxylic acid methyl ester]",92%
17,"CCCCN1C=NC(CSC)(C(=O)OC)C1CC1CCC(C(c2cccc(F)c2)N(C)C)CC1 (centres unmarked) [Example 74, 1-butyl-5-{4-[dimethylamino-(3-fluorophenyl)-methyl]-cyclohexylmethyl}-4-methylsulfanylmethyl-4,5-dihydro-1H-imidazole-4-carboxylic acid methyl ester]",95%
18,"CCCCN1C=NC(CSCc2ccccc2)(C(=O)OC)C1CC1CCC(C(c2cccc(F)c2)N(C)C)CC1 (centres unmarked) [Example 75, 4-benzylsulfanylmethyl-1-butyl-5-{4-[dimethylamino-(3-fluorophenyl)-methyl]-cyclohexylmethyl}-4,5-dihydro-1H-imidazole-4-carboxylic acid methyl ester]",98%
19,"CCCCN1C=NC(CCC(=O)OC)(C(=O)OC)C1CC1CCC(C(c2ccc(F)cc2)N(C)C)CC1 (centres unmarked) [Example 76, 1-butyl-5-{4-[dimethylamino-(4-fluorophenyl)-methyl]-cyclohexylmethyl}-4-(2-methoxycarbonylethyl)-4,5-dihydro-1H-imidazole-4-carboxylic acid methyl ester]",93%
20,"CCCCN1C=NC(CSC)(C(=O)OC)C1CC1CCC(C(c2ccc(F)cc2)N(C)C)CC1 (centres unmarked) [Example 77, 1-butyl-5-{4-[dimethylamino-(4-fluorophenyl)-methyl]-cyclohexylmethyl}-4-methylsulfanylmethyl-4,5-dihydro-1H-imidazole-4-carboxylic acid methyl ester]",88%
